Measurements reported in US6486146B1, “Cancer accelerants and phase synchronization methods” (priority 2000, dated 2002).
Like-named read-outs stand apart in the source and are kept apart here.

How the values were obtained:
[1] = target: T1, topoisomerase I (Homo sapiens, UniProt P11387); details: SN-38 versus irinotecan; cited from earlier work
T1 sequence (P11387 1-765): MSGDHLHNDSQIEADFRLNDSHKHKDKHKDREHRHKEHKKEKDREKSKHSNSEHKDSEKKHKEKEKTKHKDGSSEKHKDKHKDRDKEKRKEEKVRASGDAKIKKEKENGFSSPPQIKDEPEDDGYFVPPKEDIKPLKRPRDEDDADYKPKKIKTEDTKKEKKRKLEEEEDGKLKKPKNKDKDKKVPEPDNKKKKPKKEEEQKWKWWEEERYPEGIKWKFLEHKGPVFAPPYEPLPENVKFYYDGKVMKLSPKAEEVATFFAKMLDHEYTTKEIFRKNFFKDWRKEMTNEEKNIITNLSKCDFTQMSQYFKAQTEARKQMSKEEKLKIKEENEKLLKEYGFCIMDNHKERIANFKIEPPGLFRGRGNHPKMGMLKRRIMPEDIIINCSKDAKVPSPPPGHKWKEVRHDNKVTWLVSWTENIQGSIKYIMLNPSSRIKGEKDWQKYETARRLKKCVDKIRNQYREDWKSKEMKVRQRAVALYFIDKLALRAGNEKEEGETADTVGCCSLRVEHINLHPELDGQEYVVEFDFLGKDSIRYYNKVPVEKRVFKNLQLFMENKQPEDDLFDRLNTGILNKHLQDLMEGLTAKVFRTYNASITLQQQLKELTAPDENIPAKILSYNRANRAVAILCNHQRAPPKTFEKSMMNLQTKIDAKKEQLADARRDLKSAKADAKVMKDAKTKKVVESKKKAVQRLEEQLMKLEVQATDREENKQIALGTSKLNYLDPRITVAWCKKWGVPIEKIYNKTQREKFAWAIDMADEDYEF

[2] = system: metastatic breast cancer that possesses estrogen receptors; assay: Example 4 patient, prior art doxorubicin regimen, tumor size; format: in vivo; details: 30 mg/m2 once per week for 4 weeks, 3 cycles; illustrative patient example
[3] = system: gastrointestinal epithelial cells; assay: Expected kill of gastrointestinal epithelium from terminal half life versus cell cycle time
[4] = system: colon cancer tumor; assay: Mathematical model of tumor size until lethal burden using 32% kill rate; details: at both doses (125 mg and 100 mg), inferred from fit of the model to observed survival
[5] = system: colon cancer; details: cited from earlier work

In the case of CCc1c2c(nc3ccc(O)cc13)-c1cc3c(c(=O)n1C2)COC(=O)[C@]3(O)CC [SN-38], the “potency as a topoisomerase inhibitor relative to irinotecan” value [1] is given as ~1,000 times.
With COc1cccc2c1C(=O)c1c(O)c3c(c(O)c1C2=O)C[C@@](O)(C(=O)CO)C[C@@H]3O[C@H]1C[C@H](N)[C@H](O)[C@H](C)O1 [doxorubicin] the “reduction in tumor size after the regimen” value [2] was 32%.
For CCc1c2c(nc3ccc(OC(=O)N4CCC(N5CCCCC5)CC4)cc13)-c1cc3c(c(=O)n1C2)COC(=O)[C@]3(O)CC [Camptosar, irinotecan], the “mortality to gastrointestinal epithelium” value ([3]; present invention LD 60) was 65%, the gastrointestinal epithelium killed ([3]; prior art LD 125 mg) was 95% and the S-Phase kill rate [4] was roughly 100%. The median survival observed ([5]; 100 mg once every 7 days for 4 weeks, 2 weeks off, 2 cycles, months x 30 days) was 279 days, the median survival observed ([5]; 100 mg regimen) was 9.3 mo and the median survival observed ([5]; 125 mg once every 7 days for 4 weeks, 2 weeks off, 3 cycles, months x 30 days) was 321 days. For the same molecule, the median survival observed ([5]; 125 mg regimen) was 10.7 mo.
